From US9023821B2, “Use of MicroRNA for treating diseases associated with a dysfunction of the cilia in multiciliated epithelial cells” (Centre National de la Recherche Scientifique, priority 2009, dated 2015)

Tests used:
[1] = tested on: human airway epithelial cells (HAECs); test: High-throughput sequencing (HTS) of miRNAs at four stages of differentiation of HAECs; settings: for Modulation (ratio of the level of intensity of expression in log2 in two stages of differentiation) measured by high-throughput sequencing, D7 − D0 / Modulation (ratio of the level of intensity of expression in log2 in two stages of differentiation) measured by high-throughput sequencing, FC − D7 / Modulation (ratio of the level of intensity of expression in log2 in two stages of differentiation) measured by high-throughput sequencing, WD − D0 / Modulation (ratio of the level of intensity of expression in log2 in two stages of differentiation) measured by high-throughput sequencing, WD − FC / Level of intensity of expression in log2 measured by high-throughput sequencing, D0 / Level of intensity of expression in log2 measured by high-throughput sequencing, D7 / Level of intensity of expression in log2 measured by high-throughput sequencing, FC / Level of intensity of expression in log2 measured by high-throughput sequencing, WD: Table VI; for Level of intensity of expression in log2 At the differentiated stage (WD) measured in HTS: healthy human airway epithelial tissue; for Level of intensity of expression in log2 measured by high-throughput sequencing, D0: stage D0; for Level of intensity of expression in log2 measured by high-throughput sequencing, D7: stage D7; for Level of intensity of expression in log2 measured by high-throughput sequencing, FC: stage FC; for Level of intensity of expression in log2 At the differentiated stage (WD) measured in HTS / Level of intensity of expression in log2 measured by high-throughput sequencing, WD: stage WD
Summary of the method: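 Small-RNA libraries from differentiating HAECs (ALI-D0 to ALI-WD) were built by ligation-based SOLiD chemistry, size-selected and sequenced. Strand counts were normalized per million reads, converted to percentage abundance, and filtered on adjusted P-value below 0.05.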

[2] = tested on: basal cells and pyramidal cells of the airway epithelium; test: miRNA expression in sorted basal cells versus pyramidal cells (ciliated + secretory), HTS and Agilent chips; design: species or system human; settings: for Modulation of expression of the miRNAs in pyramidal cells (323(−)) relative to basal cells 323(+): HTS and Agilent chips; for Intensity of the level of expression in log2 in pyramidal cells (323(−)): pyramidal cells (ciliated + secretory)
Summary of the method: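 Epithelium dissociated from nasal polyps is held 30 min in PBS-BSA-EDTA, then labelled 20 min at 4° C for CD151 and tissue factor. After DAPI staining, live single cells are sorted into marker-double-positive and double-negative fractions, and sort purity and identity are verified. Total RNA then undergoes miRNA profiling on arrays or by sequencing.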

[3] = tested on: human airway epithelial cells (HAECs); test: Agilent miRNA chips, miRNA expression at four stages of differentiation of HAECs; settings: for Modulation (ratio of the level of intensity of expression in log2 in two stages of differentiation) measured with the Agilent chips, D7 − D0 / Modulation (ratio of the level of intensity of expression in log2 in two stages of differentiation) measured with the Agilent chips, FC − D7 / Modulation (ratio of the level of intensity of expression in log2 in two stages of differentiation) measured with the Agilent chips, WD − D0 / Modulation (ratio of the level of intensity of expression in log2 in two stages of differentiation) measured with the Agilent chips, WD − FC / Level of intensity of expression in log2 measured with the Agilent chips, D0 / Level of intensity of expression in log2 measured with the Agilent chips, D7 / Level of intensity of expression in log2 measured with the Agilent chips, FC / Level of intensity of expression in log2 measured with the Agilent chips, WD: Table VI; for Modulation (ratio of the level of intensity of expression in log2 at two stages of differentiation), FC − D7 / Modulation (ratio of the level of intensity of expression in log2 at two stages of differentiation), WD − FC: Agilent miRNA chips, Table V; for Level of intensity of expression in log2 measured with the Agilent chips, D0: stage D0; for Level of intensity of expression in log2 measured with the Agilent chips, D7: stage D7; for Level of intensity of expression in log2 measured with the Agilent chips, FC: stage FC; for Level of intensity of expression in log2 measured with the Agilent chips, WD: stage WD
Summary of the method: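 Expression read from hybridization signals on Human miRNA Microarray v2 arrays spanning all miRBase v.12.0 human miRNAs plus 89 viral ones. Samples are RNA from the same patients profiled by sequencing, labelled with the standard kit.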

Substance	Modulation (ratio of the level of intensity of expression in log2 in two stages of differentiation) measured by high-throughput sequencing, D7 − D0 [1] [log2]	Modulation (ratio of the level of intensity of expression in log2 in two stages of differentiation) measured by high-throughput sequencing, FC − D7 [1] [log2]	Modulation (ratio of the level of intensity of expression in log2 in two stages of differentiation) measured by high-throughput sequencing, WD − D0 [1] [log2]	Modulation (ratio of the level of intensity of expression in log2 in two stages of differentiation) measured by high-throughput sequencing, WD − FC [1] [log2]	Level of intensity of expression in log2 At the differentiated stage (WD) measured in HTS [1] [log2]	Level of intensity of expression in log2 measured by high-throughput sequencing, D0 [1] [log2]	Level of intensity of expression in log2 measured by high-throughput sequencing, D7 [1] [log2]	Level of intensity of expression in log2 measured by high-throughput sequencing, FC [1] [log2]	Level of intensity of expression in log2 measured by high-throughput sequencing, WD [1] [log2]	Modulation of expression of the miRNAs in pyramidal cells (323(−)) relative to basal cells 323(+) [2]	Intensity of the level of expression in log2 in basal cells (323(+)) [2] [log2]	Intensity of the level of expression in log2 in pyramidal cells (323(−)) [2] [log2]	Modulation (ratio of the level of intensity of expression in log2 in two stages of differentiation) measured with the Agilent chips, D7 − D0 [3] [log2]	Modulation (ratio of the level of intensity of expression in log2 at two stages of differentiation), FC − D7 [3] [log2]	Modulation (ratio of the level of intensity of expression in log2 in two stages of differentiation) measured with the Agilent chips, FC − D7 [3] [log2]	Modulation (ratio of the level of intensity of expression in log2 in two stages of differentiation) measured with the Agilent chips, WD − D0 [3] [log2]	Modulation (ratio of the level of intensity of expression in log2 at two stages of differentiation), WD − FC [3] [log2]	Modulation (ratio of the level of intensity of expression in log2 in two stages of differentiation) measured with the Agilent chips, WD − FC [3] [log2]	Level of intensity of expression in log2 measured with the Agilent chips, D0 [3] [log2]	Level of intensity of expression in log2 measured with the Agilent chips, D7 [3] [log2]	further results
hsa-miR-365: human miRNA, SEQ ID No. 41 (UAAUGCCCCUAAAAAUCCUUAU; expressed or natural sequence; listed as Homo sapiens)	−0.39	0.00	−0.39	0.00	2.78	0.41	0.01	0.01	0.01	−0.99	4.83	3.84	−0.02	−1.21	−1.21	−1.18	0.05	0.05	8.44	8.41	Level of intensity of expression in log2 measured with the Agilent chips, FC [3]: 7.21 log2; Level of intensity of expression in log2 measured with the Agilent chips, WD [3]: 7.25 log2
hsa-miR-374a: human miRNA, SEQ ID No. 42 (UUAUAAUACAACCUGAUAAGUG; expressed or natural sequence; listed as Homo sapiens)	−0.33	1.74	2.16	0.74	11.87	0.62	0.30	2.04	2.78	−1.04	4.26	3.22	1.41	−0.54	−0.54	0.79	−0.08	−0.08	7.04	8.45	Level of intensity of expression in log2 measured with the Agilent chips, FC [3]: 7.91 log2; Level of intensity of expression in log2 measured with the Agilent chips, WD [3]: 7.83 log2
